In brackets after ≈: the same amount, converted by molar mass. Peptide text beside a SMILES is read from it.
Experiments:
Format in all cases: functional
Candida albicans [1] = test: Antifungal activity against Candida albicans SC5314 after 24 hrs to 1 week by two fold dilution method
Cryptococcus neoformans = test: Antifungal activity against Cryptococcus neoformans BLS108 after 24 hrs to 1 week by two fold dilution method
Candida tropicalis = test: Antifungal activity against Candida tropicalis after 24 hrs to 1 week by two fold dilution method
Candida parapsilosis = test: Antifungal activity against Candida parapsilosis after 24 hrs to 1 week by two fold dilution method; conditions: Lodderomyces parapsilosis
Candida albicans [2] = test: Antifungal activity against Candida albicans Y0109 after 24 hrs to 1 week by two fold dilution method

Compound: CC[C@H](C)[C@@H]1NC(=O)[C@H](CC(N)=O)NC(=O)[C@H](C(C)C)NC(=O)CNC(=O)[C@H](Cc2c[nH]cn2)NC(=O)[C@H](Cc2c[nH]c3ccccc23)NC(=O)[C@@H]2CCCN2C(=O)[C@@H]2CCCN2C1=O [TUNICYCLIN D] (cyclo(GVNIPPWH))
- MIC80 (Candida albicans [1]): 4 µg/mL (≈ 4.44 µM)
- MIC80 (Cryptococcus neoformans): 1 µg/mL (≈ 1.11 µM)
- MIC80 (Candida tropicalis): 0.25 µg/mL (≈ 0.277 µM)
- MIC80 (Candida parapsilosis): 1 µg/mL (≈ 1.11 µM)
- MIC80 (Candida albicans [2]): 16 µg/mL (≈ 17.8 µM)

From ChEMBL document CHEMBL1649348, “Antifungal cyclic peptides from Psammosilene tunicoides” (2010)
